Measurements published in article PMC6627744, “A Tiny Change Makes a Big Difference in the Anti-Parasitic Activities of an HDAC Inhibitor” (International Journal of Molecular Sciences, 2019).
pIC50: −log10 of the molar value. Read-outs that look alike come from different tables or passages of the source.

Tests used:
[1] = system: RH type I strain of T. gondii; set-up: method as in PMID 29414107; conditions: cited from earlier work
[2] = system: Pru type II strain of T. gondii; set-up: method as in PMID 29414107; conditions: read-out: IC50, inhibition of T. gondii type II strain; cited from earlier work
[3] = system: RH type I strain of T. gondii; assay: Anti-T. gondii activity in infected HFF monolayers, type I strain; type: cell-based, Toxoplasma gondii
Experimental: (§1) Confluent Human Foreskin Fibroblast (HFF) monolayers were infected with YFP-type I Rh kindly provided by B. Striepen or Tomato-type II Pru kindly provided by Professor N. Blanchard (Toulouse), at 5 × 10^4 parasites per well. They were then centrifuged for 30 s at 250 g and incubated for 30 min in a water bath at 37 °C to allow invasion. The wells were washed three times with PBS to eliminate extracellular parasites, and the drugs were added at concentrations ranging from 0.01 to 3.0 μM. After incubation for 24 h at 37 °C in a humidified atmosphere containing 5% CO2, the cells were fixed in 2.5% methanol-free formaldehyde (Tebu-bio, Le Perray-en-Yvelines, France)/PBS for 30 min at room temperature. Nuclei were stained with Hoechst 33258 (2 µg/mL, Molecular Probes) for 20 min and washed three times with water. The number of infected cells, i.e., cells harboring a parasitophorous vacuole (see supplementary data S3 for an example), and the number of parasites per vacuole were determined using an Olympus ScanR microscope (×20 objective) and ScanR software. The parasitic index in % compared to the control was calculated as follows: [Parasitic index (PI) = ((number of parasite/100 cells in treated wells) × (% of infected macrophage in treated well)/(number of parasite/100 cells in untreated wells) × (% of infected macrophage in untreated wells)) × 100].

[4] = system: Pru type II strain of T. gondii; assay: Anti-T. gondii activity in infected HFF monolayers, type II strain; type: cell-based; conditions: Toxoplasma gondii, 24 h, read-out: IC50, inhibition of T. gondii type II strain
Experimental: as §1

recombinant HDAC1 enzyme = target: T1, recombinant HDAC1 enzyme (Homo sapiens, UniProt Q13547); assay: HDAC inhibition, recombinant HDAC1 (fluorometric HDAC assay kit); type: biochemical; conditions: Figure 1B
T1 construct: purchased Active Motif
T1 sequence (Q13547 whole entry): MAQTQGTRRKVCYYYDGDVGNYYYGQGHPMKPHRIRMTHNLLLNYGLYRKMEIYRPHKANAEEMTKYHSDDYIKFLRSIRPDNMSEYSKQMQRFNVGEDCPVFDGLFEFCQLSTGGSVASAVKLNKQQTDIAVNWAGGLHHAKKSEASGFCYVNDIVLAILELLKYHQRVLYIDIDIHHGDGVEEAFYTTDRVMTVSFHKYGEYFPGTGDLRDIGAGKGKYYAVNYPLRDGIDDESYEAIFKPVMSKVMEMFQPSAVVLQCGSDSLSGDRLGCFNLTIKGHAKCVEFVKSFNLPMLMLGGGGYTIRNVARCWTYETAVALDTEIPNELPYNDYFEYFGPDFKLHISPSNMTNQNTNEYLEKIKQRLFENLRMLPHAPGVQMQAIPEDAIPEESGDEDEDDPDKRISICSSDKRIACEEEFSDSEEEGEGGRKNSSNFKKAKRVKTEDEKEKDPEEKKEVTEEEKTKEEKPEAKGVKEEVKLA
Experimental: (§2) The HDACi effect against HeLa nuclear extracts and recombinant proteins were measured using a fluorometric HDAC assay kit (Active Motif, La Hulpe, Belgium) according to the manufacturer’s instructions. Briefly, 30 μL of HeLa nuclear extract (Active Motif, Belgium) or HDAC 1 recombinant protein (Active Motif, Belgium) were mixed with 5 μL of a 10× compound and 10 μL of assay buffer. A positive control, containing trichostatin A at a final concentration of 2 μM, was analyzed for each independent experiment. A fluorogenic substrate (10 μL) was added, and the reaction was allowed to proceed for 30 min at room temperature and then stopped by the addition of a developer containing trichostatin A. The fluorescence was monitored after 30 min at excitation and emission wavelengths of 360 and 460 nm, respectively.

[5] = system: HeLa cell nuclear extract, which contains mainly HDACs 1, 2, 6, and 8; assay: HDAC inhibition, HeLa nuclear extract (fluorometric HDAC assay kit); type: biochemical, human; conditions: HeLa nuclear extracts; ratio of IC50 versus 363
Experimental: as §2

T. gondii = assay: Anti-T. gondii activity in infected HFF monolayers, strain not given; type: cell-based, Toxoplasma gondii
Experimental: as §1

Question: With `COc1cccc(CC(=O)Nc2ccc(C(=O)NO)cc2)c1` [Compound 363, N-hydroxy-4-[2-(3-methoxyphenyl)acetamido]benzamide] as the molecule, how does the pIC50 ([1]; type I strain, read-out: IC50, inhibition of T. gondii type I strain) read?
Answer: 6.46

Question: What about the “fold higher susceptibility of type I strains than type II strains” value ([1]; type I versus type II) of the same molecule?
Answer: 6 fold

Question: What about the pIC50 [2] of the same molecule?
Answer: 5.64

Question: And the pIC50 ([3]; Toxoplasma gondii, type I (RH) strain, HFF, 24 h, read-out: IC50, inhibition of T. gondii type I strain)?
Answer: 6.82

Question: And the “fold higher susceptibility of type I strains than type II strains” value ([3]; type I versus type II, this work)?
Answer: 5.5 fold

Question: What about the pIC50 [4] of the same molecule?
Answer: 6.07

Question: With `COc1ccccc1CNC(=O)c1ccc(C(=O)NO)cc1` [Compound D16, 1-N-hydroxy-4-N-[(2-methoxyphenyl)methyl]benzene-1,4-dicarboxamide] as the molecule, how does the “potency on deacetylase activity of recombinant HDAC1, compared to 363” value (recombinant HDAC1 enzyme) read?
Answer: lower potency

Question: What about the “fold less efficient in HDACi activity compared to 363” value [5] of the same molecule?
Answer: 13 fold

Question: What about the anti-parasitic activity (T. gondii; even at concentrations higher than 1000 nM, RH type I and Pru type II strains (Figure 1C)) of the same molecule?
Answer: No anti-parasitic activity

Question: With `CCc1nc(N)nc(N)c1-c1ccc(Cl)cc1` [Pyrimethamine, reference compound] as the molecule, how does the pIC50 (T. gondii; Toxoplasma gondii, positive control, strain not stated) read?
Answer: 6.34
